Tested on: uterine endometrium
Assay: Anti-progestomimetic activity versus progesterone, intrauterine, change in uterine endometrium (McPhail)
Format: in vivo, immature female rabbits
Protocol: Groups of three immature female rabbits weighing about 1 kg were topically treated on the dorsal skin with 25 μg of estradiol in 10 μl of ethanol on day 1. On day 4 the product to be tested dissolved in 0.1 ml, of sesame oil containing 5% benzyl alcohol was introduced into a part of the uterus isolated between two ligatures. On the sixth day the animals were sacrificed, their uteruses retained and fixed in Bouin's solution for histological examination. Changes in the uterine endometrium were noted after the method of McPhail.

## CC#C[C@]1(O)CC[C@H]2[C@@H]3CCC4=CC(=O)CCC4=C3[C@@H](c3ccc(N(C)C)cc3)C[C@@]21C [Example 19, 11β-[4-(N,N-dimethylamino)-phenyl]-17α-(prop-1-ynyl)-Δ^4,9-estradiene-17β-ol-3-one]
Progesterone 10 μg + 1 μg/rabbit
  CHANGE IN THE ENDOMETRIUM: 1.6
Progesterone 10 μg + 3 μg/rabbit
  CHANGE IN THE ENDOMETRIUM: 1.3
Progesterone 10 μg + 10 μg/rabbit
  CHANGE IN THE ENDOMETRIUM: 1.0
Progesterone 10 μg + 30 μg/rabbit
  CHANGE IN THE ENDOMETRIUM: 0.6
Progesterone 10 μg + 90 μg/rabbit
  CHANGE IN THE ENDOMETRIUM: 0.6

— patent publication US5043332A, “Novel 11β-substituted -19-nor-steriods” (priority 1981, dated 1991)
